Experimental data reported in patent US20090298077A1, “ASSAY FOR MEASUREMENT OF APURINIC/APYRIMIDINIC (AP) SITES AND FOR SCREENING AP-SITE REACTIVE COMPOUNDS” (priority 2006, published 2009).
Several values for one entry are separate records, joined by “and”; a condition that tells them apart may be missing. Equal values may be shown once.

Legend:
AP-DNA [1] = experiment: Reversibility study of the condensation reaction between FARP / MX and AP-DNA; type: binding, calf; conditions: result in words, under the assay conditions
Protocol: It was known that the aldehyde group of an AP site could easily condense with aminooxy or hydrazone nucleophiles. However, the reversibility of the reaction was not clear, especially in the presence of another competing nucleophile. To clarify the above, two experiments were designed and carried out as follows: (a) FARP (50 μM in 100 μL of 10 mM phosphate buffer at pH 7.0) reacted with AP-DNA (125 nM in 200 μL of 10 mM phosphate buffer at pH 7.0) for 1 hr, after washing the condensation product (FARP-AP-DNA) incubated with MX (50 μM in 100 μL of 10 mM phosphate buffer at pH 7.0) for various time periods; and (b) MX (50 μM in 100 μL of 10 mM phosphate buffer at pH 7.0) reacted with AP-DNA (125 nM, 200 μL) for 1 hr, after washing the condensation product (MX-AP-DNA) incubated with FARP (50 μM in 100 μL of 10 mM phosphate buffer at pH 7.0) for various time periods.

AP-DNA [2] = experiment: FARP AP-site assay: screening of MX-like compounds in competition with FARP; type: binding, calf; conditions: 100 nM AP-DNA
Protocol: (§1) 100 μL of 5 μM FARP in phosphate buffer (10 mM, pH 7.0) was added to 200 μL phosphate buffer (10 mM, pH 7.0) containing 10 μg of DNA extracted from cells, individual AP-DNA standard (10, 20, 40, 80, 160, 320, and 640 nM AP), and blank AP-DNA control, respectively. After vortexing, the reaction was allowed to proceed at room temperature for 15 min. At the end of the reaction 200 μL ammonium acetate (7.5M) and 1000 μL ice-cold ethanol (100%) were added. The solution was mixed gently by inverting the tube before keeping it at −20° C. for 30 min. Each tube was centrifuged at 4° C. and 12,000 g for 10 min. The supernatant was poured out carefully so that no loss of FARP-AP-DNA took place. 1200 μL of ice-cold ethanol (70%) was added to each tube to remove the free FARP by centrifugation at 4° C. and 12,000 g for 10 min. This washing step with 70% ice-cold ethanol was repeated two more times. After discarding the supernatant, the FARP-AP-DNA precipitate in the tube was dried at room temperature for 30 min. in a venting hood. The FARP-AP-DNA precipitate was hydrated and resuspended in 200 μL of phosphate buffer (10 mM, pH 9.0) at room temperature for 1 hr. The fluorescence intensity of the resultant FARP-AP-DNA solution was measured by the FluoroMax-2 spectrofluorometer. A calibration curve could be constructed by plotting the fluorescence intensity versus the concentration of AP sites.
One important application of the FARP AP-site assay developed is to screen MX-like compounds for their reactivity to AP site based on known chemical structures. In this work, four compounds with aminooxy or hydrazone group (i.e., MXL1O1, MXLIO2, MXLI 03, and MXL 104) together with MX were tested. The detail experiment included mixing equal concentration and volume of each individual test compound with FARP (50 μM in 100 μL of 10 mM phosphate buffer at pH 7.0) before reacting with 200 µL of 100 nM AP-DNA. The remaining experimental procedures were the same as described in the Experimental section. The data of fluorescence intensity reduced by MX and MX-like compounds were given in Table XI and the fluorescence intensity of the test compounds were compared in FIG. 19.

[3] = system: human nonadherent mononuclear cells; experiment: ARP assay of AP sites in DNA from drug-treated human nonadherent mononuclear cells; type: cell-based; conditions: human nonadherent cell, 2 hrs at 37° C., MX 12.5 mM where combined
Source text: (§2) An ARP method modified for the slot-blot vacuum filter device was used in this work. […]

SW480 colon cancer cells [4] = experiment: FARP assay of AP sites in DNA from drug-treated SW480 cells; type: cell-based; conditions: 2 hrs at 37° C., MX 12.5 mM where combined
Protocol: as §1
(§3) Adherent SW480 colon cancer cells (from the American Type Culture Collection (Manassas, Va., USA), and human nonadherent mononuclear cells from heparinized peripheral blood of a normal donor, which were purified by the Ficoll-Hypaque density gradient centrifugation technique, were used in the in vitro experiments of TMZ and MX.
(§4) The cells (5×10^6 cells) were plated in 100-mm culture dishes and treated by TMZ alone at various concentrations (0, 187, 375, 750, and 1500 μM), and together with MX (12.5 mM) for 2 hrs at 37° C. At the end of treatment, the cells were washed by either rinsing the SW480 cells on dishes (SW480) or centrifugation of the human cells in tubes with the media. […]

SW480 colon cancer cells [5] = experiment: ARP assay of AP sites in DNA from drug-treated SW480 cells; type: cell-based; conditions: 2 hrs at 37° C., MX 12.5 mM where combined
Source text: as §2

[6] = system: human nonadherent mononuclear cells; experiment: FARP assay of AP sites in DNA from drug-treated human nonadherent mononuclear cells; type: cell-based; conditions: human nonadherent cell, 2 hrs at 37° C., MX 12.5 mM where combined
Protocol: as §1, §3
as §4, with “media. After plating the cells in dishes with fresh media, 3 mM MX was added to the dishes that were treated with TMZ and MX together. The cells were harvested by centrifugation at […] after the treatment of 3 mM MX.” for “media.”

[7] = test compound mixed with FARP at equal concentration and volume (50 μM in 100 μL, pH 7.0)

NNC(=S)Nc1ccc(-c2c3ccc(=O)cc-3oc3cc(O)ccc23)c(C(=O)O)c1 [FARP, fluorescein-5-thiosemicarbazide]
reversibility of the condensation reaction with aldehyde group of AP-DNA (AP-DNA [1]): irreversible
Normalized Fluorescence Intensity % (AP-DNA [2]; relative to FARP alone = 100, equal concentration of test compound and FARP): 100.0%
Fluorescence Intensity Individual Measurement (AP-DNA [2]; [7]): 17080.0 and 16892.0
Fluorescence Intensity Mean (AP-DNA [2]; [7]): 16986.0

Cn1nnc2c(C(N)=O)ncn2c1=O [TMZ, 3,4-dihydro-3-methyl-4-oxoimidazo[5,1-d]-as-tetrazine-8-carboxamide]
ARP Assay Band Intensity/10^3 ([3]; TMZ 187 μM): 2.201
ARP Assay Band Intensity/10^3 ([3]; TMZ 375 μM): 3.524
ARP Assay Band Intensity/10^3 ([3]; TMZ 750 μM): 4.352
ARP Assay Band Intensity/10^3 ([3]; TMZ 1500 μM): 5.844
FARP Assay Fluorescence Intensity/10^4 (SW480 colon cancer cells [4]; SW480, TMZ 187 μM): 2.428
FARP Assay Fluorescence Intensity/10^4 (SW480 colon cancer cells [4]; SW480, TMZ 375 μM): 3.691
FARP Assay Fluorescence Intensity/10^4 (SW480 colon cancer cells [4]; SW480, TMZ 750 μM): 5.310
ARP Assay Band Intensity/10^3 (SW480 colon cancer cells [5]; SW480, TMZ 187 μM): 1.420
ARP Assay Band Intensity/10^3 (SW480 colon cancer cells [5]; SW480, TMZ 375 μM): 2.723
ARP Assay Band Intensity/10^3 (SW480 colon cancer cells [5]; SW480, TMZ 750 μM): 5.233
FARP Assay Fluorescence Intensity/10^4 ([6]; TMZ 187 μM): 1.622
FARP Assay Fluorescence Intensity/10^4 ([6]; TMZ 375 μM): 3.138
FARP Assay Fluorescence Intensity/10^4 ([6]; TMZ 750 μM): 4.201
FARP Assay Fluorescence Intensity/10^4 ([6]; TMZ 1500 μM): 15.77
